Laboratory results reported in publication PMC6150172, “Synthesis of Oxadiazole-Thiadiazole Hybrids and Their Anticandidal Activity” (Molecules : A Journal of Synthetic Chemistry and Natural …, 2017).
Converted amounts (≈) assume the structure as drawn.

How the values were obtained:
[1] = test system: C. glabrata (ATCC 90030); test: Antifungal broth microdilution assay (EUCAST EDef 7.1), C. glabrata; type: cell-based; conditions: Nakaseomyces glabratus, ATCC90030, read-out: Minimum inhibitory concentration (MIC50)
Description: (§1) The anticandidal effect of compounds 6a–6s were screened in accord with the EUCAST definitive (EDef 7.1) method. Ketoconazole was employed as a reference drug. The in vitro growth inhibitory activity of the compounds were tested against C. albicans (ATCC 24433), C. glabrata (ATCC 90030), C. krusei (ATCC 6258) and C. parapsilosis (ATCC 22019). The results were obtained as MIC values and MIC readings were accomplished twice for each chemical agent. After incubating overnight at 37 °C, the fungal strains were sustained in Roswell Park Memorial Institute (RPMI) medium.
(§2) Adjustment of the inoculum density to a 0.5 McFarland turbidity standard was carried out by using a spectrophotometer. The resulting inoculum suspension contained 0.5 × 10^5–2.5 × 10^5 cfu/mL for fungi. The two-fold serial dilutions technique were applied and the test was carried out in Mueller–Hinton broth and RPMI at pH7 and the test was performed for medium at pH7. The last well on the microplates containing only inoculated broth and the last well with no growth of microorganism represent controls and the MIC50 in μg/mL, respectively. DMSO was used as solvent. Further dilutions of the compounds and standard drugs in the RPMI medium were prepared in the required quantities at contcentrations of 800, 400, 200, 100, 50, 25, 12.5, 6.25, 3.125, 1.5625 and 0.78 µg/mL. After a 24 h incubation of the completed plates, resazurin (20 µg/mL) was added into each well in order to observe the fungal growth. […] Each experiment in antifungal assay was performed twice.

[2] = test system: C. krusei (ATCC 6258); test: Antifungal broth microdilution assay (EUCAST EDef 7.1), C. krusei; type: cell-based; conditions: Pichia kudriavzevii, ATCC6258, read-out: Minimum inhibitory concentration (MIC50)
Description: as §1, §2

[3] = test system: C. albicans (ATCC 24433); test: Antifungal broth microdilution assay (EUCAST EDef 7.1), C. albicans; type: cell-based; conditions: Candida albicans, ATCC24433, read-out: Minimum inhibitory concentration (MIC50)
Description: as §1, §2

[4] = test system: C. parapsilosis (ATCC 22019); test: Antifungal broth microdilution assay (EUCAST EDef 7.1), C. parapsilosis; type: cell-based; conditions: Lodderomyces parapsilosis, ATCC22019; C. parapsilopsis; read-out: Minimum inhibitory concentration (MIC50)
Description: as §1, §2

[5] = test system: four Candida species; test: Antifungal broth microdilution assay, four Candida species taken together; type: cell-based; conditions: range over four Candida strains
Description: as §1, §2

[6] = MTT cytotoxicity test; type: cell-based; conditions: mouse, NIH/3T3 mouse embryonic fibroblast cells, NIH/3T3 cell line, read-out: IC50 (cytotoxic activity)
Description: The MTT assay was carried out to determine the cytotoxicity of the synthesized compounds as previously reported in [21]. NIH/3T3 mouse embryonic fibroblast cells (ATCC® CRL-1658™, London, UK) were incubated according to the supplier’s references and seeded at 1 × 10^4 cells into each well of 96-well plates. After this process, cells were treated with the compounds at concentrations ranging from 800 µg/mL to 0.78 µg/mL. By means of the following formula, percent inhibition was evaluated for each concentration.

[7] = test system: ergosterol biosynthesis in C. krusei; test: Ergosterol level quantification by LC-MS-MS in C. krusei; type: cell-based; conditions: Pichia kudriavzevii, mean ± SD
Description: The ergosterol level was determined using the method described by Breivik and Owades with adjustments according to [2]. C. krusei was inoculated with Sabouraud dextrose broth (Difco) supplemented with compounds 6e, 6k, 6r and the positive control, ketoconazole. The cultures were incubated, and the stationary-phase cells were harvested. After the addition of 25% alcoholic potassium hydroxide solution, cell suspensions were separated and incubated. Sterols were extracted by sterile distilled water and chloroform, and then the extract was injected into the LC-MS-MS system (Shimadzu LCMS 8040, Kyoto, Japan). The ergosterol quantity in the negative control samples was considered as 100%. All concentrations were analysed in quadruplicate, and the results were presented as mean ± standard deviation (SD).

Row | SMILES | MIC50 [1] [µg/mL] | MIC50 [2] [µg/mL] | melting point [°C] | MIC50 [3] [µg/mL] | MIC50 [4] [µg/mL] | minimum inhibitory concentration (MIC), range over all tested fungi [5] [µg/mL] | IC50 [6] [µg/mL] | inhibition at 0.78 µg/mL [7] [%] | inhibition at 1.56 µg/mL [7] [%] | inhibition at 3.12 µg/mL [7] [%]
1 | O=C(CSc1nnc(CCSc2nnc(NC3CCCCC3)s2)o1)c1ccc(F)cc1 [Compound 6f, 2-[[5-[2-[[5-(Cyclohexylamino)-1,3,4-thiadiazol-2-yl]thio]ethyl]-1,3,4-oxadiazol-2-yl]thio]-1-(4-fluorophenyl)ethan-1-one] | 50 (≈ 104 µM) | 25 (≈ 52.1 µM) | 131 | 50 (≈ 104 µM) | 50 (≈ 104 µM) | – | – | – | – | –
2 | O=C(CSc1nnc(CCSc2nnc(NC3CCCCC3)s2)o1)Nc1ccc([N+](=O)[O-])cc1 [Compound 6k, 2-[[5-[2-[[5-(Cyclohexylamino)-1,3,4-thiadiazol-2-yl]thio]ethyl]-1,3,4-oxadiazol-2-yl]thio]-N-(4-nitrophenyl)acetamide] | 1.56 (≈ 2.99 µM) | 1.56 (≈ 2.99 µM) | 149 | 1.56 (≈ 2.99 µM) | 1.56 (≈ 2.99 µM) | 0.78 to 3.12 | > 500 | 58.7 ± 2.41 | 74.7 ± 3.26 | 81.3 ± 4.19
3 | O=C(CSc1nnc(CCSc2nnc(NC3CCCCC3)s2)o1)Nc1nc2ccccc2s1 [Compound 6m, 2-[[5-[2-[[5-(Cyclohexylamino)-1,3,4-thiadiazol-2-yl]thio]ethyl]-1,3,4-oxadiazol-2-yl]thio]-N-(benzothiazol-2-yl)acetamide] | 50 (≈ 93.7 µM) | 50 (≈ 93.7 µM) | 214 | 50 (≈ 93.7 µM) | 25 (≈ 46.8 µM) | – | – | – | – | –
4 | Cc1ccc2nc(NC(=O)CSc3nnc(CCSc4nnc(NC5CCCCC5)s4)o3)sc2c1 [Compound 6n, 2-[[5-[2-[[5-(Cyclohexylamino)-1,3,4-thiadiazol-2-yl]thio]ethyl]-1,3,4-oxadiazol-2-yl]thio]-N-(6-methylbenzothiazol-2-yl)acetamide] | 25 (≈ 45.6 µM) | 50 (≈ 91.3 µM) | 209 | 100 (≈ 183 µM) | 25 (≈ 45.6 µM) | – | – | – | – | –

Continued, in another order:

Row | MIC50 [1] [µg/mL] | MIC50 [2] [µg/mL] | melting point [°C] | MIC50 [3] [µg/mL] | MIC50 [4] [µg/mL] | minimum inhibitory concentration (MIC), range over all tested fungi [5] [µg/mL] | SMILES | IC50 [6] [µg/mL] | inhibition at 0.78 µg/mL [7] [%] | inhibition at 1.56 µg/mL [7] [%] | inhibition at 3.12 µg/mL [7] [%]
5 | 25 (≈ 50.8 µM) | 100 (≈ 203 µM) | 120 | 100 (≈ 203 µM) | 50 (≈ 102 µM) | – | COc1ccc(C(=O)CSc2nnc(CCSc3nnc(NC4CCCCC4)s3)o2)cc1 [Compound 6c, 2-[[5-[2-[[5-(Cyclohexylamino)-1,3,4-thiadiazol-2-yl]thio]ethyl]-1,3,4-oxadiazol-2-yl]thio]-1-(4-methoxyphenyl)ethan-1-one] | – | – | – | –
6 | 25 (≈ 50.4 µM) | 50 (≈ 101 µM) | 167 | 100 (≈ 202 µM) | 50 (≈ 101 µM) | – | O=C(CSc1nnc(CCSc2nnc(NC3CCCCC3)s2)o1)c1ccc(Cl)cc1 [Compound 6d, 2-[[5-[2-[[5-(Cyclohexylamino)-1,3,4-thiadiazol-2-yl]thio]ethyl]-1,3,4-oxadiazol-2-yl]thio]-1-(4-chlorophenyl)ethan-1-one] | – | – | – | –
7 | 1.56 (≈ 3.08 µM) | 0.78 (≈ 1.54 µM) | 144 | 1.56 (≈ 3.08 µM) | 0.78 (≈ 1.54 µM) | 0.78 to 3.12 | O=C(CSc1nnc(CCSc2nnc(NC3CCCCC3)s2)o1)c1ccc([N+](=O)[O-])cc1 [Compound 6e, 2-[[5-[2-[[5-(Cyclohexylamino)-1,3,4-thiadiazol-2-yl]thio]ethyl]-1,3,4-oxadiazol-2-yl]thio]-1-(4-nitrophenyl)ethan-1-one] | > 500 | 76.5 ± 3.67 | 82.9 ± 4.72 | 88.6 ± 4.52
8 | 25 (≈ 44 µM) | 25 (≈ 44 µM) | 213 | 50 (≈ 88 µM) | 50 (≈ 88 µM) | – | O=C(CSc1nnc(CCSc2nnc(NC3CCCCC3)s2)o1)Nc1nc2ccc(Cl)cc2s1 [Compound 6p, 2-[[5-[2-[[5-(Cyclohexylamino)-1,3,4-thiadiazol-2-yl]thio]ethyl]-1,3,4-oxadiazol-2-yl]thio]-N-(6-chlorobenzothiazol-2-yl)acetamide] | – | – | – | –
9 | 3.12 (≈ 5.39 µM) | 1.56 (≈ 2.7 µM) | – | 3.12 (≈ 5.39 µM) | 1.56 (≈ 2.7 µM) | 0.78 to 3.12 | O=C(CSc1nnc(CCSc2nnc(NC3CCCCC3)s2)o1)Nc1nc2ccc([N+](=O)[O-])cc2s1 [Compound 6r, 2-[[5-[2-[[5-(Cyclohexylamino)-1,3,4-thiadiazol-2-yl]thio]ethyl]-1,3,4-oxadiazol-2-yl]thio]-N-(6-nitrobenzothiazol-2-yl)acetamide] | 406 ± 9.36 (≈ 702 µM) | 61.4 ± 1.88 | 70.6 ± 4.23 | 80.2 ± 3.7
